{"source": "patent US9856427B2", "about": "“Method to convert fermentation mixture into fuels” (The Regents of the University of California, priority 2011, dated 2018)", "test_system": "Clostridium acetobutylicum", "test": "Toxicity study: growth inhibition and cell viability", "format": "cell-based", "conditions": "up to 1:1 volume ratios of extractant to media", "from_the_text": "Growth inhibition and cell viability was examined in a study using up to 1:1 volume ratios of extractant to media.", "data": [{"smiles": "CCCC(=O)OCC(COC(=O)CCC)OC(=O)CCC", "note": "[glyceryl tributyrate]", "values": [{"measurement": "toxicity to Clostridium acetobutylicum (growth inhibition and cell viability)", "value": "non-toxic"}]}]}
